As usually defined, the inhibition is the change of the read-out against control, counted positive when it falls.

Structures are written as SMILES. Like-named read-outs stand apart in the source and are kept apart here. Bounds are passed on as bounds.

From patent US20260166162A1, “CARBON CHAIN SUBSTANCE FOR REGULATING TRANSMEMBRANE TRANSPORT AND FLUIDITY OF CELL MEMBRANES, AND PREPARATION AND USE THEREOF” (priority 2022, published 2026) come the findings set out here.

For series [1] the following is noted: mouse, in vivo, po.
The test system of another series is Staphylococcus aureus. The series can be described thus: Bacteriostasis/sterilization test (plate count). The note with it: for inhibition rate: concentration 0.035 mM; for IC50: read-out: half inhibition concentration; for Inhibition rate (%) / inhibition at 35 µM: 0.035 mM (Table 25); for inhibition at 35 µM: read-out: Inhibition rate (%); for inhibition at 9 µM: concentration 0.009 mM, read-out: inhibition rate. The class given is cell-based.

The subject of a further series is VERO E6 cells. The series can be described thus: Cytotoxicity (CCK-8) on VERO E6 cells.
Another series concerns Pseudomonas aeruginosa. The series can be described thus: Bacteriostasis/sterilization test (plate count). Type of series: cell-based. To be noted: for Inhibition rate (%): 0.035 mM (Table 25); for inhibition at 35 µM: Pseudomonas aeruginosa, read-out: Inhibition rate (%).
In series [2] the test system is SARS-CoV-2 pseudovirus. Type of series: cell-based, SARS-CoV-2 pseudovirus B.1.526.2.
The subject of the next series is Klebsiella pneumoniae. The series can be described thus: Bacteriostasis/sterilization test (plate count). The class given is cell-based. To be noted: for Inhibition rate (%): 0.035 mM (Table 25); for inhibition at 35 µM: Klebsiella pneumoniae, read-out: Inhibition rate (%).
The next series concerns Streptococcus pneumoniae. The series can be described thus: Bacteriostasis/sterilization test (plate count). The class given is cell-based. To be noted: for Inhibition rate (%): 0.035 mM (Table 25); for inhibition at 35 µM: Streptococcus pneumoniae, read-out: Inhibition rate (%).
The subject of another series is Escherichia coli. Nature of the series: Bacteriostasis/sterilization test (plate count). To be noted: for Inhibition rate (%): 0.035 mM (Table 25); for inhibition at 35 µM: Escherichia coli, read-out: Inhibition rate (%). Type of series: cell-based.
Another series concerns 293T cells. The series can be described thus: Cellular phagocytosis of DiD-loaded lipid vesicles (nano-drugs) by 293T cells (Example II-51, Table II-29). The class given is cell-based. The note with it: 293T cells pretreated 4 h, DiD lipid vesicles 2 h, n=3, untreated control 226.46 ± 1.26.
Series [3] concerns Methicillin-resistant Staphylococcus aureus. The series can be described thus: Bacteriostasis/sterilization test (plate count). The class given is cell-based. To be noted: 0.035 mM (Table 25).
Another series concerns H5N1 pseudovirus. Type of series: cell-based, Influenza pseudovirus H5N1-Fluc.
The test system of series [4] is SARS-CoV-2 pseudovirus (B.1.526.2). The class given is cell-based. The note with it: n=3.
A further series concerns HIV pseudovirus. Type of series: cell-based, HIV pseudovirus HIV18A-41.
The test system of the next series is H7N9 pseudovirus. Type of series: cell-based, Influenza pseudovirus H7N9-Fluc.
Series [5] deals with SARS-CoV-2 pseudovirus. Details: species or system SARS-CoV-2 pseudovirus B.1.526.2.
Series [6] has as its system TNF-α. The series can be described thus: LPS inflammatory aging in C57BL/6 mice, serum TNF-α (Example II-55, Table II-37). Type of series: in vivo, mouse. To be noted: 1 mM, 200 μl/time once a day for 30 days, LPS C57BL/6 mice.
Series [7] concerns TNF-α. Nature of the series: Skin photoaging (UVB) in BALB/c nude mice, serum TNF-α (Example II-54, Table II-32). The class given is in vivo, mouse. The note with it: UVB-irradiated BALB/c nude mice, 40 days.
In series [8] the test system is IL-1β. The series can be described thus: LPS inflammatory aging in C57BL/6 mice, serum IL-1β (Example II-55, Table II-35). Type of series: in vivo, mouse. To be noted: 1 mM, 200 μl/time, once a day, 30 days.
Series [9] concerns IL-6. Nature of the series: Skin photoaging (UVB) in BALB/c nude mice, serum IL-6 (Example II-54, Table II-34). The class given is in vivo, mouse. To be noted: serum, UVB-irradiated BALB/c nude mice, 40 days.
Series [10] deals with IL-1β. The series can be described thus: Skin photoaging (UVB) in BALB/c nude mice, serum IL-1β (Example II-54, Table II-33). Type of series: in vivo, mouse. To be noted: serum, UVB-irradiated BALB/c nude mice, 40 days.
The test system of series [11] is IL-6. Nature of the series: LPS inflammatory aging in C57BL/6 mice, serum IL-6 (Example II-55, Table II-36). To be noted: 1 mM, 200 μl/time once a day for 30 days; serum, LPS C57BL/6 mice. The class given is in vivo, mouse.

Turning to `CCCCCCCC/C=C\CCCCCCCC(=O)NCCCCC(N)C(=O)O` (stereo not shown), in series [1], the “liver, heart, kidney, bone/hepatobiliary function in blood versus control group” value is “no difference” and the “physiological state, body weight, fur color, food consumption, mental state versus control group” value was “not significantly different”. Moreover, in the series with Staphylococcus aureus, the inhibition rate result is “greater than 99%” and the IC50 amounted to 9 µM. Also, the “effect of the complex on cells” value with VERO E6 cells ([…] to 0.035 mM) is “less than 1%”.

In the case of `CCCCCCCC(=O)OCC(N)C(=O)O` (stereo not shown), the “Inhibition rate (%)” value (with Pseudomonas aeruginosa; in the series on Klebsiella pneumoniae; in the series with Streptococcus pneumoniae; with Escherichia coli; with Staphylococcus aureus; in series [3]) was 99% in each case. Further, the “Inhibition rate (%)” value in series [4] (2 nM) is reported as 30.54 ± 0.54%; in [4] (5 nM), 52.06 ± 5.23%; in [4] (10 nM), 53.84 ± 1.57%; in series [4] (50 nM), 56.33 ± 1.56%; in series [4] (100 nM), 63.22 ± 2.55%; in series [4] (1 μM), -97.39 ± 7.23%. The entries for the “Inhibition rate (%)” value in [4] (10 μM), in series [4] (50 μM) and in [4] (100 μM) were -44.26 ± 0.03%, 71.36 ± 0.28% and 73.55 ± 0.44%, respectively. For the same molecule, the “Sterilization rate (%)” value with SARS-CoV-2 pseudovirus [2], in the series on H5N1 pseudovirus, with HIV pseudovirus and in the series on H7N9 pseudovirus was 99% in each case. In addition, the inhibition rate result in the series on Staphylococcus aureus is recorded as “greater than 99%”. In addition, the IC50 with Staphylococcus aureus was 9 µM. Besides, the Fluorescence intensity in the series with 293T cells (2 nM) amounted to 157.30 ± 0.13; with 293T cells (5 nM), 108.56 ± 0.13; in the series on 293T cells (10 nM) it was 104.53 ± 0.13; in the series with 293T cells (50 nM), 98.90 ± 0.13; in the series with 293T cells (100 nM), 83.29 ± 5.66; with 293T cells (1 uM) it was 447.01 ± 12.33. For the same molecule, the Fluorescence intensity amounted to 326.69 ± 4.66 with 293T cells (10 uM), 64.86 ± 5.13 in the series with 293T cells (50 uM) and 59.90 ± 4.13 with 293T cells (100 uM).

Take `CCCCCCCC(=O)OC(C)C(N)C(=O)O` (stereo not shown): the “Inhibition rate (%)” value (in the series on Pseudomonas aeruginosa; in the series with Klebsiella pneumoniae; in the series with Streptococcus pneumoniae; in the series on Escherichia coli; with Staphylococcus aureus; in series [3]) was 99% each time. In addition, the “Sterilization rate (%)” value in the series with SARS-CoV-2 pseudovirus [2], in the series on H5N1 pseudovirus, in the series with HIV pseudovirus and in the series on H7N9 pseudovirus was 99% throughout. For the same molecule, the “membrane structure of the virus (TEM)” value in the series with SARS-CoV-2 pseudovirus [5] is recorded as “broken”. In the series with Staphylococcus aureus, the inhibition rate result was “greater than 99%”. For the same molecule, the IC50 in the series with Staphylococcus aureus worked out at 9 µM.

Turning to `CCCCCCC(O)CC=CCCCCCCCC(=O)NCCCCC(N)C(=O)O` (stereo not shown) [Lys-ricinoleic acid], the TNF-α amounted to 43 pg/mL with TNF-α [6], 60 pg/mL in the series on TNF-α [7] (30 μM smeared), 55 pg/mL in the series with TNF-α [7] (50 μM smeared) and 57 pg/mL in the series with TNF-α [7] (100 μM smeared). Further, the “IL-1β” value in the series with IL-1β [8] was found to be 51 pg/mL; with IL-1β [10] (30 μM smeared) it was 70 pg/mL; in the series with IL-1β [10] (50 μM smeared), 65 pg/mL; with IL-1β [10] (100 μM smeared), 63 pg/mL. Also, the IL-6 came out at 34 pg/mL in the series with IL-6 [9] (30 μM smeared), 38 pg/mL in the series with IL-6 [9] (50 μM smeared), 33 pg/mL with IL-6 [9] (100 μM smeared) and 60 pg/mL with IL-6 [11].

`CCCCCCCCCN(C)C[C@H](O)[C@@H](O)[C@H](O)[C@H](O)CO` [N-nonyl-N-methylglucamine]: the “liver, heart, kidney, bone/hepatobiliary function in blood versus control group” value in series [1] was “no difference”. The “physiological state, body weight, fur color, food consumption, mental state versus control group” value in series [1] is “not significantly different”. The inhibition at 35 µM with Pseudomonas aeruginosa, with Klebsiella pneumoniae, with Streptococcus pneumoniae, with Escherichia coli and in the series on Staphylococcus aureus (Staphylococcus aureus) was 99% each time. Also, the “Sterilization rate (%)” value in the series with SARS-CoV-2 pseudovirus [2], in the series on H5N1 pseudovirus, with HIV pseudovirus and in the series with H7N9 pseudovirus was 99% in each case. In the series with Staphylococcus aureus (Staphylococcus aureus), the inhibition at 9 µM was more than 99%. Also, the IC50 in the series with Staphylococcus aureus (Staphylococcus aureus) is 3 µM. Further, the “effect of the complex on cells” value in the series on VERO E6 cells (9 mM to 0.035 mM) is on record as “less than 10%”.

Consider `CCCCCCCCN(C)C[C@H](O)[C@@H](O)[C@H](O)[C@H](O)CO` [N-octyl-N-methylglucamine], for which the “liver, heart, kidney, bone/hepatobiliary function in blood versus control group” value in [1] is “no difference”. For the same molecule, in series [1], the “physiological state, body weight, fur color, food consumption, mental state versus control group” value was “not significantly different”. The inhibition at 35 µM with Pseudomonas aeruginosa, in the series with Klebsiella pneumoniae, with Streptococcus pneumoniae, in the series on Escherichia coli and in the series with Staphylococcus aureus (Staphylococcus aureus) was 99% throughout. In addition, the “Sterilization rate (%)” value in the series with SARS-CoV-2 pseudovirus [2], with H5N1 pseudovirus, with HIV pseudovirus and in the series on H7N9 pseudovirus was 99% each time. For the same molecule, in the series on Staphylococcus aureus (Staphylococcus aureus), the inhibition at 9 µM is more than 99%. In addition, the IC50 in the series on Staphylococcus aureus (Staphylococcus aureus) was determined as 3 µM. Also, in the series with VERO E6 cells (9 mM to 0.035 mM), the “effect of the complex on cells” value was “less than 10%”.

Regarding `CCCCCC=CCC=CCCCCCCCC(=O)OCC(N)C(=O)O` (stereo not shown) [Ser-linoleic acid], the TNF-α with TNF-α [6] was 49 pg/mL; with TNF-α [7] (30 μM smeared) it was 48 pg/mL; in the series on TNF-α [7] (50 μM smeared) it was 51 pg/mL; with TNF-α [7] (100 μM smeared), 45 pg/mL. Besides, the “IL-1β” value with IL-1β [8] stood at 43 pg/mL; in the series with IL-1β [10] (30 μM smeared), 53 pg/mL; with IL-1β [10] (50 μM smeared) it was 54 pg/mL; with IL-1β [10] (100 μM smeared), 55 pg/mL. The IL-6 amounted to 28 pg/mL in the series on IL-6 [9] (30 μM smeared), 27 pg/mL in the series with IL-6 [9] (50 μM smeared), 29 pg/mL in the series with IL-6 [9] (100 μM smeared) and 39 pg/mL in the series on IL-6 [11].

`CCC=CCC=CCC=CCCCCCCCC(=O)OC(C)C(N)C(=O)O` (stereo not shown) [Thr-linolenic acid] gave a TNF-α in the series on TNF-α [6] of 52 pg/mL. The “IL-1β” value in the series with IL-1β [8] was determined as 41 pg/mL. This molecule had an IL-6 in the series with IL-6 [11] of 57 pg/mL.
